Experimental data taken from patent publication US20100256109A1, “Azetidines As EP2 Antagonists” (priority 2007, published 2010).
pKi: −log10 of the molar value.

biological target: T1, recombinant human EP-2 receptor (Homo sapiens, UniProt P43116); experiment: In vitro antagonist potency against recombinant human prostaglandin E2 (EP-2) receptor in CHO cells (cAMP); assay type: cell-based; conditions: CHO cells expressing recombinant human EP-2 receptor, stimulated with PGE2 5 nM; cAMP readout; Ki from IC50 by Cheng-Prusoff; read-out: EP2 Ki
T1 construct: stably transfected with full length cDNA encoding human Prostaglandin E2; expressed in transfected cells
T1 sequence (P43116 whole entry): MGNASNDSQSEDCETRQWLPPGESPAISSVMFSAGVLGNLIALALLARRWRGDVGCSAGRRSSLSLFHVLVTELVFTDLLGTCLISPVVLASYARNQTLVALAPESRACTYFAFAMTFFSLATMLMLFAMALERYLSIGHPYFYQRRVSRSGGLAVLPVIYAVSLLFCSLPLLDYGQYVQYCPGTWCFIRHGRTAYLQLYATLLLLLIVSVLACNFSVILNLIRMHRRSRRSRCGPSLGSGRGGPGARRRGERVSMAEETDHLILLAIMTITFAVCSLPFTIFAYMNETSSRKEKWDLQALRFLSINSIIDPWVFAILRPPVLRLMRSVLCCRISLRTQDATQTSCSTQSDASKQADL
Protocol: 1.0 Measurement of In Vitro Antagonist Potency (IC50) of Compounds Against Recombinant Human Prostaglandin E2 Receptor in CHO Cells.
The prostaglandin E2 (EP-2) receptor is Gs coupled and agonism of the receptor by PGE2 results in activation of intracellular adenylate cyclase enzymes that synthesise the second messenger signalling molecule, adenosine 3′,5′-cyclic monophosphate (cAMP). CHO cells expressing the recombinant human EP-2 receptor are stimulated with PGE2 (5 nM) equivalent to approximately […] values to give the maximal cAMP signal. Decreases in cAMP levels following treatment of stimulated recombinant EP-2 cells with potential antagonist compounds were measured and potency (IC50) calculated as follows.
A Chinese hamster ovary (CHO) cell line stably transfected with full length cDNA encoding human Prostaglandin E2 was established using standard molecular biology methods. Test compounds were dissolved in dimethyl sulphoxide (DMSO) at 4 mM. 11 point half log unit increment dilution series of test compound were prepared in DMSO then diluted 1 in 40 in a buffer comprised of phosphate buffered saline (PBS) and 0.05% pluronic F-127 surfactant. Freshly cultured cells at 80-90% confluence were harvested and re-suspended in 90% growth media/10% DMSO. The cells were frozen using a planar freezer and stored in frozen aliquots in cryovials in liquid nitrogen until the day of the experiment. A vial of cells was defrosted in a 37° C. water bath for 2 min, then transferred to 10 ml of Dulbecco's Modified Eagle's Medium (DMEM). The cells were then centrifuged for 5 min at 1000 g and the pellet re-suspended at 1,000,000 cells/ml in DMEM. 5,000 cells (5 ul) were added to 5 ul of the compound dilution series in a 384 well assay plate and pre-incubated for 30 min at 37° C. 5 ul of agonist (15 nM PGE2 in PBS to give 5 nM FAC) was added and plates further incubated for 90 min at 37° C. The relative cAMP concentration in each well was then measured using a β-galactosidase enzyme fragment complementation method purchased in kit form as the Discoverx cAMP II kit from GE Healthcare, UK. […] Sigmoidal curves were fitted to plots of log10 inhibitor concentration vs. percent effect. IC50 estimates were determined as the concentration of test compound giving an effect half way between the bottom and top asymptotes of the sigmoidal dose response curve. Each experiment included an IC50 determination for the literature compound as a standard to track assay consistency and allow fair comparison between values obtained in different experiments. The EC50 of PGE2 is used in combination with the ligand concentration in the assay to determine Ki values for antagonist dose responses using the Cheng-Prusoff equation. Consequently an agonist dose response curve is carried out for each experiment using the same incubation as the antagonist plate.

`O=C(c1ccccc1)N1CC(Cn2nnc(-c3ccccc3)n2)(C(=O)O)C1` [Example 1, 1-Benzoyl-3-[(5-phenyl-2H-tetrazol-2-yl)methyl]azetidine-3-carboxylic acid] and `O=C(c1ccccc1)N1CC(Cn2nnc(-c3cccc(F)c3)n2)(C(=O)O)C1` [Example 47] are within 0.2 log units of each other in pKi: 6.65 for the first, 6.82 for the second.

Compared with `O=C(c1ccc(Cl)cc1)N1CC(Cn2nnc(-c3cccc(Cl)c3)n2)(C(=O)O)C1` [Example 2], `O=C(c1ccc(Cl)cc1)N1CC(Cn2nnc(-c3cccc(F)c3)n2)(C(=O)O)C1` [Example 3] is 0.50 log units lower in pKi: 8.45 for the first, 7.95 for the second. The first binds more tightly here.

Going from `Cc1ccc(-c2nnn(CC3(C(=O)O)CN(C(=O)c4ccc(Cl)cc4)C3)n2)cc1` [Example 4] to `O=C(c1ccc(Cl)cc1)N1CC(Cn2nnc(-c3ccc(Cl)cc3)n2)(C(=O)O)C1` [Example 6], the pKi falls from 8.84 to 8.62 (0.22 log units). The first binds more tightly here.

Going from `O=C(c1ccc(Cl)cc1)N1CC(Cn2nnc(-c3ccc(C(F)(F)F)cc3)n2)(C(=O)O)C1` [Example 5] to `O=C(c1ccc(F)cc1)N1CC(Cn2nnc(-c3ccc(Cl)cc3)n2)(C(=O)O)C1` [Example 25], the pKi falls from 8.79 to 7.70 (1.09 log units).

Going from `CCC(=O)Nc1ccc(-c2nnn(CC3(C(=O)O)CN(C(=O)c4ccc(Cl)cc4)C3)n2)cc1` [Example 7] to `CCC(=O)Nc1ccc(-c2nnn(CC3(C(=O)O)CN(C(=O)c4ccc(F)cc4)C3)n2)cc1` [Example 32], the pKi falls from 9.09 to 7.99 (1.10 log units).

First: Cc1ccc(-c2nnn(CC3(C(=O)O)CN(C(=O)c4ccc(Cl)cc4)C3)n2)cc1Cl [Example 8]
Second: O=C(c1ccc(Cl)cc1)N1CC(Cn2nnc(-c3ccc(Cl)c(Cl)c3)n2)(C(=O)O)C1 [Example 9]
The pKi of the first is 0.31 log units higher: 9.37 for the first, 9.06 for the second.

Compared with `O=C(c1ccc(Cl)cc1)N1CC(Cn2nnc(-c3cc(Cl)cc(Cl)c3)n2)(C(=O)O)C1` [Example 10], `O=C(c1ccc(F)cc1)N1CC(Cn2nnc(-c3cc(F)cc(Cl)c3)n2)(C(=O)O)C1` [Example 43] is 1.13 log units lower in pKi: 8.99 for the first, 7.86 for the second.

`Cc1ccccc1-c1nnn(CC2(C(=O)O)CN(C(=O)c3ccc(F)cc3)C2)n1` [Example 12] and `O=C(c1ccc(F)cc1)N1CC(Cn2nnc(-c3ccccc3F)n2)(C(=O)O)C1` [Example 13] are within 0.2 log units of each other in pKi: 7.11 for the first, 7.06 for the second.

Going from `O=C(c1ccc(F)cc1)N1CC(Cn2nnc(-c3ccccc3Cl)n2)(C(=O)O)C1` [Example 14] to `O=C(c1ccc(F)cc1)N1CC(Cn2nnc(-c3cccc(Cl)c3Cl)n2)(C(=O)O)C1` [Example 39], the pKi rises from 6.66 to 7.40 (0.74 log units). The second binds more tightly here.

Compared with `O=C(c1ccc(F)cc1)N1CC(Cn2nnc(-c3ccccc3C(F)(F)F)n2)(C(=O)O)C1` [Example 15], `COc1ccccc1-c1nnn(CC2(C(=O)O)CN(C(=O)c3ccc(F)cc3)C2)n1` [Example 16] is 0.22 log units higher in pKi: 6.13 for the first, 6.35 for the second.

`Cc1cccc(-c2nnn(CC3(C(=O)O)CN(C(=O)c4ccc(F)cc4)C3)n2)c1` [Example 17] and `COc1cccc(-c2nnn(CC3(C(=O)O)CN(C(=O)c4ccc(F)cc4)C3)n2)c1` [Example 20] are within 0.2 log units of each other in pKi: 7.83 for the first, 7.94 for the second.

First: O=C(c1ccc(F)cc1)N1CC(Cn2nnc(-c3cccc(Oc4ccccc4)c3)n2)(C(=O)O)C1 [Example 21]
Second: COc1ccc(-c2nnn(CC3(C(=O)O)CN(C(=O)c4ccc(F)cc4)C3)n2)cc1 [Example 28]
The pKi of the first is 1.12 log units lower: 6.85 for the first, 7.97 for the second.

First: CCc1ccc(-c2nnn(CC3(C(=O)O)CN(C(=O)c4ccc(F)cc4)C3)n2)cc1 [Example 23]
Second: O=C(c1ccc(F)cc1)N1CC(Cn2nnc(-c3ccc(F)cc3)n2)(C(=O)O)C1 [Example 26]
The pKi of the first is 1.73 log units higher: 8.86 for the first, 7.13 for the second.

First: O=C(c1ccc(F)cc1)N1CC(Cn2nnc(-c3ccc(OC(F)F)cc3)n2)(C(=O)O)C1 [Example 30]
Second: O=C(c1ccc(F)cc1)N1CC(Cn2nnc(-c3ccc(F)c(F)c3)n2)(C(=O)O)C1 [Example 41]
The pKi of the first is 0.65 log units higher: 7.83 for the first, 7.18 for the second.

Going from `O=C(c1ccc(F)cc1)N1CC(Cn2nnc(-c3ccc(Cl)cc3Cl)n2)(C(=O)O)C1` [Example 38] to `O=C(c1ccc(F)cc1)N1CC(Cn2nnc(-c3c(F)cccc3F)n2)(C(=O)O)C1` [Example 42], the pKi falls from 7.57 to 6.58 (0.99 log units). The first binds more tightly here.

Compared with `O=C(c1ccc(F)cc1)N1CC(Cn2nnc(-c3cc(C(F)(F)F)cc(C(F)(F)F)c3)n2)(C(=O)O)C1` [Example 44], `COc1cc(OC)cc(C(=O)N2CC(Cn3nnc(-c4ccc(C(F)(F)F)cc4)n3)(C(=O)O)C2)c1` [Example 46, 1-(3,5-Dimethoxybenzoyl)-3-({5-[4-(trifluoromethyl)phenyl]-2H-tetrazol-2-yl}methyl)azetidine-3-carboxylic acid] is 0.47 log units higher in pKi: 6.88 for the first, 7.35 for the second.

First: O=C(c1ccccc1)N1CC(Cn2nnc(-c3c(F)cccc3F)n2)(C(=O)O)C1 [Example 48]
Second: Cc1ccc(C(=O)N2CC(Cn3nnc(-c4c(F)cccc4F)n3)(C(=O)O)C2)cc1 [Example 59]
The pKi of the first is 0.75 log units lower: 6.49 for the first, 7.24 for the second. The second binds more tightly here.

Going from `COc1ccc(-c2nnn(CC3(C(=O)O)CN(C(=O)c4ccccc4)C3)n2)cc1OC` [Example 49] to `COc1ccc(-c2nnn(CC3(C(=O)O)CN(C(=O)c4cccc(F)c4)C3)n2)cc1OC` [Example 55], the pKi falls from 7.38 to 6.34 (1.04 log units).

First: O=C(c1ccccc1)N1CC(Cn2nnc(-c3ccc(Cl)s3)n2)(C(=O)O)C1 [Example 50]
Second: O=C(Nc1cccc(F)c1)N1CC(Cn2nnc(-c3ccc(Cl)s3)n2)(C(=O)O)C1 [Example 71]
The pKi of the first is 0.93 log units higher: 7.21 for the first, 6.28 for the second. The first binds more tightly here.

`CCOc1ccccc1C(=O)N1CC(Cn2nnc(-c3ccccc3)n2)(C(=O)O)C1` [Example 51] and `CCOc1ccccc1C(=O)N1CC(Cn2nnc(-c3cccc(F)c3)n2)(C(=O)O)C1` [Example 52] are within 0.2 log units of each other in pKi: 6.27 for the first, 6.35 for the second.

Compared with `CCOc1ccccc1C(=O)N1CC(Cn2nnc(-c3ccc(C(F)(F)F)cc3)n2)(C(=O)O)C1` [Example 53], `CCOc1ccccc1C(=O)N1CC(Cn2nnc(Cc3c(F)cccc3Cl)n2)(C(=O)O)C1` [Example 54] is 1.38 log units lower in pKi: 7.49 for the first, 6.11 for the second. The first binds more tightly here.

Going from `COc1cccc(C(=O)N2CC(Cn3nnc(-c4ccc(C(C)(C)C)cc4)n3)(C(=O)O)C2)c1` [Example 56] to `COc1cccc(C(=O)N2CC(Cn3nnc(-c4ccc(OC)c(OC)c4)n3)(C(=O)O)C2)c1` [Example 58], the pKi rises from 6.75 to 7.12 (0.37 log units).

Going from `COc1cccc(C(=O)N2CC(Cn3nnc(Cc4c(F)cccc4Cl)n3)(C(=O)O)C2)c1` [Example 57] to `COc1cccc(NC(=O)N2CC(Cn3nnc(-c4cccc(F)c4)n3)(C(=O)O)C2)c1` [Example 68, 3-{[5-(3-fluorophenyl)-2H-tetrazol-2-yl]methyl}-1-{[(3-methoxyphenyl)amino]carbonyl}azetidine-3-carboxylic acid], the pKi rises from 6.02 to 6.52 (0.50 log units). The second binds more tightly here.

Compared with `O=C(c1ccc(Cl)cc1)N1CC(Cn2nnc(Cc3ccc(C(F)(F)F)cc3)n2)(C(=O)O)C1` [Example 60], `O=C(c1c(F)cccc1F)N1CC(Cn2nnc(Cc3ccc(C(F)(F)F)cc3)n2)(C(=O)O)C1` [Example 63] is 0.48 log units lower in pKi: 6.19 for the first, 5.71 for the second. The first binds more tightly here.

Going from `O=C(c1ccc(Cl)cc1)N1CC(Cn2nnc(-c3c(F)cccc3F)n2)(C(=O)O)C1` [Example 61] to `COc1cc(OC)cc(C(=O)N2CC(Cn3nnc(-c4c(F)cccc4F)n3)(C(=O)O)C2)c1` [Example 65], the pKi falls from 8.13 to 6.64 (1.49 log units).

Going from `COc1ccc(C(=O)N2CC(Cn3nnc(-c4ccc(OC)c(OC)c4)n3)(C(=O)O)C2)cc1` [Example 62] to `COc1cc(OC)cc(C(=O)N2CC(Cn3nnc(-c4ccc(OC)c(OC)c4)n3)(C(=O)O)C2)c1` [Example 66], the pKi falls from 7.60 to 6.65 (0.95 log units). The first binds more tightly here.

Going from `COc1ccc(-c2nnn(CC3(C(=O)O)CN(C(=O)c4c(F)cccc4F)C3)n2)cc1OC` [Example 64] to `O=C(Nc1cccc(Cl)c1)N1CC(Cn2nnc(-c3cccc(F)c3)n2)(C(=O)O)C1` [Example 70], the pKi falls from 6.64 to 6.41 (0.23 log units). The first binds more tightly here.

Compared with `O=C(Nc1cccc(Cl)c1Cl)N1CC(Cn2nnc(-c3ccccc3)n2)(C(=O)O)C1` [Example 67, 1-{[(2,3-dichlorophenyl)amino]carbonyl}-3-[(5-phenyl-2H-tetrazol-2-yl)methyl]azetidine-3-carboxylic acid], `CCc1ccccc1NC(=O)N1CC(Cn2nnc(-c3cccc(F)c3)n2)(C(=O)O)C1` [Example 69] is 0.53 log units lower in pKi: 6.89 for the first, 6.36 for the second. The first binds more tightly here.
